Data published in patent US20030008845A1, “Conjugated nonadecadienoic acid compositions” (priority 2001, published 2003).

Key:
lipoprotein lipase (LPL) = target: T1, lipoprotein lipase (LPL) (Mus musculus, UniProt P11152); test: heparin-releasable LPL activity in 3T3-L1 adipocytes; assay type: cell-based
T1 construct: endogenous in cells; host or cells: 3T3-L1 adipocytes
T1 sequence (P11152 28-474): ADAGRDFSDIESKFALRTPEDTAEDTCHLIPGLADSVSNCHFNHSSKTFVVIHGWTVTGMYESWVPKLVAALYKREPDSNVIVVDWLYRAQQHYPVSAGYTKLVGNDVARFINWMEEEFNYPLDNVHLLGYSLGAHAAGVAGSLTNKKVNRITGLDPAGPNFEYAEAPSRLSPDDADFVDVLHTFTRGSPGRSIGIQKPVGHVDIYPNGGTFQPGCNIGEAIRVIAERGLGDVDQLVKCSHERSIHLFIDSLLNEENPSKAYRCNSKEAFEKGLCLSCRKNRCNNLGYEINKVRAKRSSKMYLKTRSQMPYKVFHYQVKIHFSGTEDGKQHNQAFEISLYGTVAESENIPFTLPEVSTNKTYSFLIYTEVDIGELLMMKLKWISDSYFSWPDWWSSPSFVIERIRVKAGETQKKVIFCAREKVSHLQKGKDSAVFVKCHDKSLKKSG
Text: (§1) CNA was synthesized from NA (purchased from Nu-Chek Corp., Elysian, Minn.), using the method described in Park, Y. et al., Lipids 34 (1999) 235-241 for producing CLA from linoleic acid; the CNA product synthesized contained 97.3% CNA (c10, t12, 33.4%; t11, c13, 32.9%; t10, t12/t11, t13, 23.4%; other isomers, 7.6%) with the remainder as unreacted NA. CLA was synthesized as described by Park, et al., supra; the CLA product synthesized contained 97.8% CLA (c9, t11/t9, c11, 45.7%; t10, c12, 47.6%; t9, t11/t10, t12, 1.7%; others, 2.8%) with the remainder as unreacted linoleic acid.
(§2) Cultured cells were treated with fatty acid-albumin complexes for 2 days, beginning at day 6 post-differentiation. Data were analyzed as log value with a two-way ANOVA using fatty acid (as treatments) and experiment. If the interaction between treatment and experiment was significant, this interaction was used as the error term. Additional experimental details were as described in Park, et al., supra.
(§3) Treatment values indicate the concentration of test materials (μM); all treatment groups included albumin at 100 μM. Reported values are mean±S.E. (n=8, collected from two independent experiments). […] CNA inhibited LPL activity in cultured 3T3-L1 adipocytes (FIG. 1A). In addition, CNA enhanced glycerol release (FIG. 1B) and reduced intracellular triacylglycerol (FIG. 1C) and glycerol (FIG. 1D) in the same cells. […]

3T3-L1 adipocytes [1] = test: glycerol release in 3T3-L1 adipocytes; assay type: cell-based
Text: as §1, §2, §3

3T3-L1 adipocytes [2] = test: cellular triacylglycerol in 3T3-L1 adipocytes; assay type: cell-based
Text: as §1, §2, §3

3T3-L1 adipocytes [3] = test: cellular glycerol in 3T3-L1 adipocytes; assay type: cell-based
Text: as §1, §2, §3

[4] = Effects of CNA and CLA on body composition (diet feeding); assay type: in vivo, mice; conditions: 0.3% in diet, 2 weeks; for Body weight gain per animal: female ICR mice
Text: Female ICR mice (4-week-old) and semi-purified diets (TD94060, 99% basal mix) were purchased from Harlan Sprague Dawley (Madison, Wis.) and Harlan Teklad (Madison, Wis.), respectively. CLA was obtained from Natural Lipids Ltd AS, Hovdebygda, Norway; its composition was 88.7% CLA (c9, t11/t9, c11, 41.9%; t10, c12, 43.5%; t9, t11/10, t12, 1.5%; others, 1.8%) with the remainder as oleic acid, 5.6%; palmitic acid, 1.4%; and linoleic acid, 0.5%. CNA was kindly provided by the US Food and Drug Administration; it was 98.6% CNA (c10, t12, 42.3%; t11, c13, 48.0%; t10, t12/t11, t13, 5.1%; others, 3.2%) with the remainder as unreacted NA. CLA or CNA was added to diets at the expense of corn oil to maintain 5.5% fat. Diet was stored at −20° C. until use. Mice were housed individually in a windowless room with a 12-h light-dark cycle in strict accordance to guidelines established by the Research Animal Resources Center of University of Wisconsin-Madison. Diet and water, available ad libitum, were freshly provided three times per week.
After a 5 day adaptation period, mice were randomly separated into 3 groups and fed control diet, diet supplemented with 0.3% CLA, or diet supplemented with 0.3% CNA for 2 weeks. 0.3% of diet CLA is a sub-optimal dose for CLA's effects on body composition.
Results are mean±S.E. (n=6).

[5] = test system: collagen-induced whole blood platelet aggregation; test: collagen-induced whole blood platelet aggregation; assay type: cell-based, guinea pigs; conditions: guinea pig heparinized whole blood, collagen 4 μg/ml, 2 min preincubation (FIG. 2)
Experimental: (§4) Female guinea pigs and diets were purchased from Harlan Teklad (Madison, Wis). Whole Blood Aggregometer, collagen and ADP were purchased from Chrono-log Corp. (Havertown, Pa.). All ELISA kits were purchased from Cayman Chemical (Ann Arbor, Mich.).
(§5) Whole blood platelet aggregation: Guinea Pigs were anesthetized with a combination of ketamine (35 mg/kg) and xylazine (10 mg/kg) by subcutaneous administration. Heparinized blood (20 unit/ml) was obtained by cardiac puncture. Within 5-10 minutes, the blood (1.0 ml) was preheated at 37° C. and then incubated with free fatty acid or DMSO (control) for 2 minutes. Collagen (4 μg/ml) or ADP (10 μM) was next added to the blood to start the platelet aggregation process. Platelet aggregation was measured using an Aggregometer.

[6] = test system: ADP-induced whole blood platelet aggregation; test: ADP-induced whole blood platelet aggregation; assay type: cell-based, guinea pigs; conditions: guinea pig heparinized whole blood, ADP 10 μM, 2 min preincubation (FIG. 3)
Experimental: as §4, §5

thromboxane B2 = thromboxane B2 level in collagen-stimulated blood by ELISA; assay type: cell-based, guinea pigs; conditions: collagen-stimulated guinea pig blood, plasma ELISA (FIG. 4)
Experimental: as §4
(§6) Determination of thromboxane B2 level by ELISA: After the whole blood platelet aggregation, the collagen-stimulated blood was centrifuged for plasma and stored at −80° C. The plasma thromboxane level was determined by ELISA according to the manufacturer's instructions. Inhibitory effects on ovine COX-1 and COX-2: COX-1 or COX-2, heme and reaction buffer were pre-incubated under 37° C. CNA or DMSO (control) was added to the system and co-incubated for 5 minutes. Arachidonic acid was added and the reaction was maintained at 37° C. for 2 minutes. The catalysis reaction was terminated by adding HCL. Total prostanoids were measured by ELISA according to manufacturer's instructions.

ovine cyclooxygenase-1 = target: T2, ovine cyclooxygenase-1 (Ovis aries, UniProt P05979); test: ovine COX-1 inhibition (total prostanoids by ELISA); assay type: biochemical; conditions: pure ovine COX-1, 5 min co-incubation, 37° C. (FIG. 5)
T2 sequence (P05979 25-600): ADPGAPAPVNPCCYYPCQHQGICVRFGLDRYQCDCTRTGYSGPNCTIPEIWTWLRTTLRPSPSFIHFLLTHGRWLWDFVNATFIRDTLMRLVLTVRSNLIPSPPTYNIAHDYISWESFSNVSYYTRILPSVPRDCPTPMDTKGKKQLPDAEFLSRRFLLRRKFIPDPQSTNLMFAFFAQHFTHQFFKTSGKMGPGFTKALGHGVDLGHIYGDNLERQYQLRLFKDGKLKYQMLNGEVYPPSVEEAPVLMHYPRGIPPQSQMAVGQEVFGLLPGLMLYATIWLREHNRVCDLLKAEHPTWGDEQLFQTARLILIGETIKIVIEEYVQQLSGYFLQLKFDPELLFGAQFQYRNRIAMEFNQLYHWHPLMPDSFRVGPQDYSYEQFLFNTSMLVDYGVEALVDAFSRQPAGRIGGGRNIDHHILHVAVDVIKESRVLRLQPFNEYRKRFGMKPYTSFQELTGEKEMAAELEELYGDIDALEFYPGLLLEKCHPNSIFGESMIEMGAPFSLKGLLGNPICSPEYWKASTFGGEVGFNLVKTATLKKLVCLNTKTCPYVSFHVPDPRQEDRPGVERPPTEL
Experimental: as §6

ovine cyclooxygenase-2 = target: T3, ovine cyclooxygenase-2 (Ovis aries, UniProt P79208); test: ovine COX-2 inhibition (total prostanoids by ELISA); assay type: biochemical; conditions: pure ovine COX-2, 5 min co-incubation, 37° C. (FIG. 6)
T3 sequence (P79208 17-603): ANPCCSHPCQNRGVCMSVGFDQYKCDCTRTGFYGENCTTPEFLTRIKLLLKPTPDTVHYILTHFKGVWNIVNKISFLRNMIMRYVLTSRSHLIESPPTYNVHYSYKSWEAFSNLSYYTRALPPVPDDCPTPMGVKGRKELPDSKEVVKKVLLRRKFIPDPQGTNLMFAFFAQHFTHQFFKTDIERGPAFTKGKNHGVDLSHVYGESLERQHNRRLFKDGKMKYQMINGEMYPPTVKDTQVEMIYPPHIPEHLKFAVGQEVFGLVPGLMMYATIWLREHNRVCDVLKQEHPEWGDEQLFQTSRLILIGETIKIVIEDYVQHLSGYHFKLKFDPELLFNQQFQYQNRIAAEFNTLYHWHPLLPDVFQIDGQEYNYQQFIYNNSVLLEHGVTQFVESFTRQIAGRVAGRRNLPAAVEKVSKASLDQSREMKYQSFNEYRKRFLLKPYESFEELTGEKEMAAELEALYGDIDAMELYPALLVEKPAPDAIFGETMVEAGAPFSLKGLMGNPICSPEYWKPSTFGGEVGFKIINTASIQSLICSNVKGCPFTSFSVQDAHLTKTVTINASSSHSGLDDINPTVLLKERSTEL
Experimental: as §6

[7] = test system: lipopolysaccharide-stimulated macrophages; test: PGE2 released from LPS-stimulated macrophages; assay type: cell-based; conditions: macrophages incubated 24 hours, then 100 ng/ml LPS 8 hours; about 3000 pg/ml without CNA (FIG. 7)
Experimental: As a further indication of the ability of CNA to inhibit COX enzymes, FIG. 7 depicts the inhibition of PGE2 released from stimulated macrophages in the presence of varying amounts of CNA. Confluent macrophages were incubated with CNA or linoleic acid (LA; control) at the concentrations shown for 24 hours in 0.5% fetal bovine serum then were stimulated with 100 ng/ml lipopolysaccharide (LPS) for 8 hours. The level of PGE2 in the medium was determined by ELISA assay.

Row | Compound | LPL activity (lipoprotein lipase (LPL); 3T3-L1 adipocytes, at 50 or 100 μM) | glycerol release (3T3-L1 adipocytes [1]; at 50 or 100 μM) | intracellular triacylglycerol (3T3-L1 adipocytes [2]; at 50 or 100 μM) | intracellular glycerol (3T3-L1 adipocytes [3]; at 50 or 100 μM) | Body weight gain per animal [4] | LPL activity (lipoprotein lipase (LPL); cultured 3T3-L1 adipocytes, fatty acid-albumin complexes 2 days, albumin 100 μM (FIG. 1A)) | glycerol release (3T3-L1 adipocytes [1]; 2 days, albumin 100 μM (FIG. 1B)) | intracellular triacylglycerol (3T3-L1 adipocytes [2]; 2 days, albumin 100 μM (FIG. 1C)) | intracellular glycerol (3T3-L1 adipocytes [3]; 2 days, albumin 100 μM (FIG. 1D)) | amount of whole body water, protein and ash ([4]; mice, in words) | body fat mass gain ([4]; mice, in words) | collagen-stimulated platelet aggregation [5] | ADP-stimulated platelet aggregation [6] | thromboxane B2 level (thromboxane B2) | COX-1 activity (ovine cyclooxygenase-1) | COX-2 activity (ovine cyclooxygenase-2) | level of PGE2 in the medium [7]
1 | CCCCC/C=C\C/C=C\CCCCCCCCC(=O)O [NA, c10, c13 nonadecadienoic acid, reference compound] | ineffective | ineffective | ineffective | ineffective | – | – | – | – | – | – | – | – | – | – | – | – | –
2 | Conjugated linoleic acid [CLA, reference compound] | – | – | – | – | 1.3 g | – | – | – | – | – | – | – | – | – | – | – | –
3 | conjugated nonadecadienoic acid [CNA] | – | – | – | – | 0.2 g | inhibited | enhanced | reduced | reduced | enhanced | reduced | inhibited | inhibited | reduced | inhibited | inhibited | less than 1000 pg/ml
